This passage reports IC50 results from patent US8138183B2, “Morpholino pyrimidine derivatives used in diseases linked to mTOR kinase and/or PI3K” (AstraZeneca AB, priority 2007, dated 2012).

The test has as its target recombinant mTOR (Homo sapiens, UniProt P42345). In words: In Vitro mTOR Kinase Assay, Test (a)(i) (AlphaScreen). The note with it: read-out: IC50 versus mTOR kinase. In kind it is biochemical. On the procedure: (a)(i) In Vitro mTOR Kinase Assay
The assay used AlphaScreen technology (Gray et al., Analytical Biochemistry, 2003, 313: 234-245) to determine the ability of test compounds to inhibit phosphorylation by recombinant mTOR.
The HEK293 FLAG-tagged mTOR (1362-2549) stable cell line was routinely maintained at 37° C. with 5% CO2 up to a confluency of 70-90% in Dulbecco's modified Eagle's growth medium (DMEM; Invitrogen Limited, Paisley, UK Catalogue No. 41966-029) containing 10% heat-inactivated foetal calf serum (FCS; Sigma, Poole, Dorset, UK, Catalogue No. F0392), 1% L-glutamine (Gibco, Catalogue No. 25030-024) and 2 mg/ml Geneticin (G418 sulfate; Invitrogen Limited, UK Catalogue No. 10131-027). […]
Each reaction was stopped by the addition of 10 μl of a mixture of EDTA (50 mM), bovine serum albumin (BSA; 0.5 mg/mL) and Tris-HCl pH7.4 buffer (50 mM) containing p70 S6 Kinase (T389) 1A5 Monoclonal Antibody (Cell Signalling Technology, Catalogue No. 9206B) and AlphaScreen Streptavidin donor and Protein A acceptor beads (200 ng; Perkin Elmer, Catalogue No. 6760002B and 6760137R respectively) were added and the assay plates were left for about 20 hours at room temperature in the dark. The resultant signals arising from laser light excitation at 680 nm were read using a Packard Envision instrument. […]
mTOR enzyme inhibition for a given test compound was expressed as an IC50 value.
For orientation: Bead proximity is the source of the signal in Alpha formats.

recombinant mTOR, sequence (P42345 1362-2549): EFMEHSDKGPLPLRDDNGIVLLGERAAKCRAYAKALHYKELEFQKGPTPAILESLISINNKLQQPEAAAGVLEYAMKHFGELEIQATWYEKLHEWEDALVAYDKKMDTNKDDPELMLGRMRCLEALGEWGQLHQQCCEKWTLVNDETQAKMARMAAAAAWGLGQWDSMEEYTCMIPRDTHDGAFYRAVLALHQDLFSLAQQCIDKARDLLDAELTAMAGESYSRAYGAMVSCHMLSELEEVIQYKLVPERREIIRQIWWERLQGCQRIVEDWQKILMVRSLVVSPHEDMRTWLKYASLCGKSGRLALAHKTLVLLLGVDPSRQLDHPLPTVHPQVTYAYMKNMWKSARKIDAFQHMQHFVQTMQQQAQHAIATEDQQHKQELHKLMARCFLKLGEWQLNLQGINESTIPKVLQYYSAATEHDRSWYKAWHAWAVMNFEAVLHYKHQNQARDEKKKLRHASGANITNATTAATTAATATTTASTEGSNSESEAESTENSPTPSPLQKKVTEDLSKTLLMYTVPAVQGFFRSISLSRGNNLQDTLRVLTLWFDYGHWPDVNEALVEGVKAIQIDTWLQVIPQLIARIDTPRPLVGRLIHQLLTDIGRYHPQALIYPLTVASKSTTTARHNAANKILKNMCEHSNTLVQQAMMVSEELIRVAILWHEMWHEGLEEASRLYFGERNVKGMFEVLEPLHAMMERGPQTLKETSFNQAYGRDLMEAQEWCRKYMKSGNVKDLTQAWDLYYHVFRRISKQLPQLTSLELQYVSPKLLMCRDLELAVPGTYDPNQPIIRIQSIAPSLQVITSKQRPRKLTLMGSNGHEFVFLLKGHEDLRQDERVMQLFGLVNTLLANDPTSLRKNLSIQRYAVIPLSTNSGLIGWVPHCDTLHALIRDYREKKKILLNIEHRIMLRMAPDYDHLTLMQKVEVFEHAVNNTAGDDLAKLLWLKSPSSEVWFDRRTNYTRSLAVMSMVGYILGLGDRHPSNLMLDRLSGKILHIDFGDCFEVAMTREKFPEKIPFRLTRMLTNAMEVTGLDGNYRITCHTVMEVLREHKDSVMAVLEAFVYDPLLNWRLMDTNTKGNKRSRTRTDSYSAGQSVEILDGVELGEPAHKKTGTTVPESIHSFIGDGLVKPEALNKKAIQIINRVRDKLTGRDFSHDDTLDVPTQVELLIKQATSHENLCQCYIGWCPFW

A word on the IC50: it is the concentration that inhibits the measured activity by half. For the compound `C[C@H]1COCCN1c1cc(CS(C)(=O)=O)nc(-c2ccc(NC(=S)Nc3ccccc3)cc2)n1` [Example 1b, 1-[4-[4-[(3S)-3-methylmorpholin-4-yl]-6-(methylsulfonylmethyl)pyrimidin-2-yl]phenyl]-3-phenyl-thiourea], the IC50 turned out to be 550 nM.
